Reference: article PMC6017357, “In Vitro Inhibitory Effects of Synthetic Cannabinoid EAM-2201 on Cytochrome P450 and UDP-Glucuronosyltransferase Enzyme Activities in Human Liver Microsomes” (Molecules : A Journal of Synthetic Chemistry and Natural …, 2018)

Key:
CYP1A2 = target: T1, CYP1A2 (Homo sapiens, UniProt P05177); assay: CYP1A2-mediated phenacetin O-deethylation in pooled human liver microsomes; type: in vitro ADME; settings: up to 50 µM, without 30-min preincubation
T1 construct: from tissue; host or cells: ultrapooled human liver microsomes
T1 sequence (P05177 1-516): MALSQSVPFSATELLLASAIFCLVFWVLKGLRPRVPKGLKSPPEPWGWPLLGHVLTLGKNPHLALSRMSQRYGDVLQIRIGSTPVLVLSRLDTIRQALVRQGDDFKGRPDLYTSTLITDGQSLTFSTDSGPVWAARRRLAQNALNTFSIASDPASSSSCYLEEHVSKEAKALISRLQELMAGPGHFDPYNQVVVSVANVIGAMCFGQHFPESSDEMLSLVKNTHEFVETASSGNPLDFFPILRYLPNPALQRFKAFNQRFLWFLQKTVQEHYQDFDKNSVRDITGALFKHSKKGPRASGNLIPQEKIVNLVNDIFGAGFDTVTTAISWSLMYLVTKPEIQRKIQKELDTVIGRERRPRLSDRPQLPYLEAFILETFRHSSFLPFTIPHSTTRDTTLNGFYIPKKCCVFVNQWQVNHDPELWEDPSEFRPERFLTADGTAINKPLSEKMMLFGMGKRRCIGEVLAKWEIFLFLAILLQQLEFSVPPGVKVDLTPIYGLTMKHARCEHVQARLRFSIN
Method: (§1) The inhibitory potential (IC50 values) of EAM-2201 on CYP1A2, CYP2A6, CYP2C8, CYP2C9, CYP2C19, CYP2D6 and CYP3A4 were evaluated using ultrapooled human liver microsomes and a cocktail of seven CYP substrates followed by LC-tandem mass spectrometry (LC-MS/MS) as previously described. […] Aliquots (5 µL) of the diluted supernatants were analyzed using LC-MS/MS. […]
(§2) The metabolites formed from CYP substrates were simultaneously quantified using our previously described LC-MS/MS method. […] Quantification was performed by selected reaction monitoring (SRM) of the [M + H]^+ ion and the related product ion for each metabolite: acetaminophen, 152.1 > 110.3; N-desethylamodiaquine, 328.1 > 283.0; 7-hydroxycoumarin, 163.0 > 107.2; 4-hydroxybupropion, 256.1 > 238.0; 4′-hydroxydiclofenac, 312.0 > 231.1; 4′-hydroxy-mephenytoin, 235.1 > 150.1; 1′-hydroxybufuralol, 278.1 > 186.1; 1′-hydroxymidazolam, 341.9 > 324.0; ^13C2,^15N-acetaminophen, 155.1 > 111.2; and d9-1′-hydroxybufuralol, 287.2 > 187.0. […]

CYP2A6 = target: T2, CYP2A6 (Homo sapiens, UniProt P11509); assay: CYP2A6-mediated coumarin 7-hydroxylation in pooled human liver microsomes; type: in vitro ADME; settings: up to 50 µM, without 30-min preincubation
T2 construct: from tissue; host or cells: ultrapooled human liver microsomes
T2 sequence (P11509 1-494): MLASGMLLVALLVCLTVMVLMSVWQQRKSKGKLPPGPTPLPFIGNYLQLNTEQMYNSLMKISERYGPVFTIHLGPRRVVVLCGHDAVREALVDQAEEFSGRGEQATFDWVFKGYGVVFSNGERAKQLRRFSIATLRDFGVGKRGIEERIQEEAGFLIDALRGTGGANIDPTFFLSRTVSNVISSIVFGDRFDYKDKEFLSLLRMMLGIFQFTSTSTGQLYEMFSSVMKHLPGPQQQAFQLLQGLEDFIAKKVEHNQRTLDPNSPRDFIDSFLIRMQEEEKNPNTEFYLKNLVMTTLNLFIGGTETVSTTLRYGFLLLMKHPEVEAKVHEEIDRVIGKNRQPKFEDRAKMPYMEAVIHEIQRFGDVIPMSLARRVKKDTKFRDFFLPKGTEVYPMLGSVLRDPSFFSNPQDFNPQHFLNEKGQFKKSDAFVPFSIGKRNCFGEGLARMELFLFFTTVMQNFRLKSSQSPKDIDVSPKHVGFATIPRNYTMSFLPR
Method: as §1, §2

SMILES: CCc1ccc(C(=O)c2cn(CCCCCF)c3ccccc23)c2ccccc12 [EAM-2201, (4-ethyl-1-naphthalenyl)[1-(5-fluoropentyl)-1H-indol-3-yl]-methanone]
- inhibition of CYP1A2-mediated phenacetin O-deethylation (CYP1A2): negligibly inhibited
- inhibition of CYP2A6-mediated coumarin 7-hydroxylation (CYP2A6): negligibly inhibited
